Tests used:
[1] = tested on: Hepa 1-6 tumors; experiment: Hepa 1-6 tumors in mice; assay type: in vivo, mouse; conditions: Hepa 1-6 in C57BL6/J mice treated with anti-CD3; i.p., 20 mg/kg every day
Procedure: FIGS. 28A-28G: C99 inhibits murine RALDH1 and suppresses murine HCC growth. FIG. 28A: AldeRed assay was performed on Hepa1-6 (murine HCC, left graph) and SNU398 (human HCC, right graph) cells with or without different concentration of C99 (x-axis). Shown is the percentage of AldeRed-positive cells (y-axis) after 24 hours exposure to C99. Murine RALDH1 is sensitive to C99. FIG. 28B: Hepa1-6 cells were treated with different concentrations of C99 in vitro and the number of viable cells were counted at different time points. […] FIG. 28C: C57BL6/J mice were implanted subcutaneously with Hepa1-6 cells and the tumor-bearing mice. To prevent spontaneous rejection of this cell line, mice were treated with anti-CD3. Once the tumors reached around 50 mm^3 size, mice were treated with C86 or C99 (i.p., 20 mg/kg) every day. […] C99, but not C86, suppresses murine HCC growth. Two independent experiments were performed with at least three replicates per experimental group. Unpaired t test, two-tailed. FIG. 28D: Tumors in (FIG. 28C) were harvested at endpoint, single-cell suspension generated, and AldeRed assay was performed along with surface staining with immune cell markers. Shown is the percentage of AldeRed-positive cells in nonleukocytes (CD45 negative, mostly tumor cells) under the different treatment conditions. Two independent experiments were performed with at least three replicates per experimental group. Unpaired t test, two-tailed. FIG. 28E: FCS base frequency of Macrophages (F4/80^+ cells) within CD45^+ leukocytes in tumor tissues from experiment outlined in (FIGS. 28C-28D). Two independent experiments were performed with at least three replicates per experimental group. Unpaired t test, two-tailed. FIG. 28F: Hepa1-6 tumor-bearing NU/J mice were treated with chlodronate liposomes (CloLipo) and/or C86/C99. CloLipo treatment suppresses tumor growth and renders tumors insensitive to C99. Two independent experiments were performed with at least three replicates per experimental group. Unpaired t test, two-tailed. FIG. 28G: The murine fibrosarcoma (FS) cell line was implanted subcutaneously into C57BL6/J mice. Mice were treated with 25 mg/kg of C-99 or vehicle everyday starting one day after tumor cell transplantation. *, P<0.05; **, P<0.01; ***, P<0.001; ns, not significant.
Cultured Huh7, Huh1, Hepa 1-6, Hep55, and FS (as indicated in figure legends) tumor cells were detached using 0.25% trypsin (Gibco, catalog #25200056), washed once with 1×PBS, and counted before implantation. 3~6×10^6 tumor cells were implanted subcutaneously (s.c.) into shaved flanks of recipient mice. Tumor dimensions were measured using a caliper starting at the day indicated in the accompanying figure legend and every two to three days thereafter; volume was calculated by using formula Length*Width^2/2. Tumor volumes of 2,000 mm^3, tumor length of 2 cm or tumor ulceration were used as endpoints for survival analyses.
To deplete T cells, 200 μg of mouse CD3-specific antibody (clone 17A2) was administered i.p. starting three days before tumor implantation and repeated every three to four days until mouse sacrifice. To deplete macrophages, 200 μL of clodronate liposome (CloLipo) or PBS-liposome (CtrlLipo) (both Liposoma) was administered i.p. starting three days prior to tumor implantation and repeated every four days until mouse sacrifice. Macrophage depletion efficacy in spleen and within tumors was confirmed by flow cytometry using canonical macrophage marker F4/80. […]

[2] = molecular target: T1, Glutamate, Metabotropic, mGlu5 (Homo sapiens, UniProt P41594); experiment: Safetyscreen: mGlu5; assay type: binding; conditions: read-out: % Inh. Glutamate, Metabotropic, mGlu5
T1 construct: purchased Eurofins Cereps Panlabs

[3] = tested on: SNU398 cells; experiment: In vitro proliferation and viability of human HCC cell lines; assay type: cell-based; conditions: SNU398, 1, 10, 100 and 1000 nM
Procedure: FIG. 20D: LC-MS for ATRA on Hepa1-6 (mouse HCC cell line) or SNU398 (human HCC cell line). […] Two independent experiments were performed with at least three replicates per experimental group. Unpaired t test, two-tailed. *, P<0.05; **, P<0.01; ***, P<0.001. […] Cell proliferation was measured by counting live cell numbers at each time point. […] Cell proliferation was measured by counting live cell numbers at each time point.
Cell viability was measured by flow cytometry (FCM) with 7-AAD staining (Y-axis indicates percentage of 7-AAD negative cells).
1×10^4~2×10^5 of Huh7, Huh1, Hepa 1-6, and Hep55 tumor cells were plated in triplicate in 48-well plates or 6-well plates. Viable cell numbers were counted every day for three to four days.

[4] = molecular target: T2, Serotonin (5-Hydroxytryptamine) 5-HT1A (Homo sapiens, UniProt P08908); experiment: Safetyscreen: 5-HT1A; assay type: binding; conditions: read-out: % Inh. Serotonin (5-Hydroxytryptamine) 5-HT1A
T2 construct: Eurofins Cereps Panlabs (contract panel)
T2 sequence (P08908 whole entry): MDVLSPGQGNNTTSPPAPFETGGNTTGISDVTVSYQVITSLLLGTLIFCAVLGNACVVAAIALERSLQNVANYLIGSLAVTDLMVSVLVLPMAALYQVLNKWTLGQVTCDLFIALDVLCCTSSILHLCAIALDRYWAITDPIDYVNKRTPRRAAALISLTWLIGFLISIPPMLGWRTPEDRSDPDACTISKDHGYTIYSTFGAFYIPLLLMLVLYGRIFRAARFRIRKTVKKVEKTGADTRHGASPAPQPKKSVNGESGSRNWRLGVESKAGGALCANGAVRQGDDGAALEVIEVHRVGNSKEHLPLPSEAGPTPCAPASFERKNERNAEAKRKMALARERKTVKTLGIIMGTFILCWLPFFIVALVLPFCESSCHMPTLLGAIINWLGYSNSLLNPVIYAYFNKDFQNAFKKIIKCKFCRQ

T1 sequence (P41594 21-1212): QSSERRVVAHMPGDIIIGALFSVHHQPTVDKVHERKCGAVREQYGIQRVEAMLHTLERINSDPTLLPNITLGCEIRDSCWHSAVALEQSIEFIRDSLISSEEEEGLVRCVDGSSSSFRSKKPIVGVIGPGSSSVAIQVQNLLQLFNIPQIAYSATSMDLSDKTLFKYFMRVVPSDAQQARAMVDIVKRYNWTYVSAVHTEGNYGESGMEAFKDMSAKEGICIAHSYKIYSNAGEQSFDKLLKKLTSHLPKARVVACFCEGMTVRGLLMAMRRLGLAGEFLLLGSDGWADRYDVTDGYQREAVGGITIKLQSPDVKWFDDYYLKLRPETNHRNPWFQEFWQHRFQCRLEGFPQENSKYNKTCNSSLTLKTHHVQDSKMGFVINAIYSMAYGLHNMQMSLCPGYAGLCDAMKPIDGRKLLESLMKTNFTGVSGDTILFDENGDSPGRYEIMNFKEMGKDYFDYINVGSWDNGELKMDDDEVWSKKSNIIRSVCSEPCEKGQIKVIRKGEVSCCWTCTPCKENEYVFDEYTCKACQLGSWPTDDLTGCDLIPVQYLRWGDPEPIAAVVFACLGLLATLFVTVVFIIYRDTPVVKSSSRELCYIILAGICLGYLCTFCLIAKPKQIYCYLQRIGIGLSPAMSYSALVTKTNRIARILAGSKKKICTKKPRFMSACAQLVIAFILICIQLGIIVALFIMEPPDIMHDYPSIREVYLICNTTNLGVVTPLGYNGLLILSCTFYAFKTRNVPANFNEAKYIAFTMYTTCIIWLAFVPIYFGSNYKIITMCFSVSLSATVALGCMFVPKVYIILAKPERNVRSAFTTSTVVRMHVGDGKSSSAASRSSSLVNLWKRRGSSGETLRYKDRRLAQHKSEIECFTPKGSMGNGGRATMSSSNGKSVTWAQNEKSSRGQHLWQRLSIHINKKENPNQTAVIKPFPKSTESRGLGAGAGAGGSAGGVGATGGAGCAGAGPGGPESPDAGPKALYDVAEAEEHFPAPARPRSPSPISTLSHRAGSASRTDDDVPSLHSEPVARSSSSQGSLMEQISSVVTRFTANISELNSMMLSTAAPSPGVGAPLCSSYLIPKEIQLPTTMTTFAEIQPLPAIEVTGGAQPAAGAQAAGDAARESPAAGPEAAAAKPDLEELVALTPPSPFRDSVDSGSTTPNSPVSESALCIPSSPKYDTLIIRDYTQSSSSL

CS(=O)(=O)N1CCN(C(=O)c2cnc3ccc(F)cc3c2N2CCC(C#N)(c3ccccc3)CC2)CC1 [Compound C-86, 1-(6-fluoro-3-(4-(methylsulfonyl)piperazine-1-carbonyl)quinolin-4-yl)-4-phenylpiperidine-4-carbonitrile]
tumor growth in vivo [1]: did not suppress
inhibition at 10 µM [2]: 16%
HCC cell growth in vitro [3]: did not inhibit HCC cell growth in vitro
inhibition at 10 µM [4]: 5%
